Here are results for twelve compounds from patent US20240166643A1, “IMIDAZO[1,2-A]PYRIDINE COMPOUNDS AND THEIR USE IN THERAPY” (Imperial College Innovations Limited, priority 2020, published 2024).

Usually half-life stands for the time in which the quantity being followed falls by half. A low value points to fast loss. As a reminder, the pEC50 is −log10 of the EC50, conventionally taken in molar units. Broadly, the pIC50 is the IC50 on a negative log10 scale, so that one unit is a factor of ten. The low end stands for a large IC50, the high end for a small IC50.

pEC50, pIC50: −log10 of the molar value. Where only a bound is given, the exact number is not on record here.

The nature of one data set: in vitro. To be noted: male, Sprague-Dawley, rat, pooled cryopreserved rat hepatocytes, pH 7.4.
Data set [1] deals with Plasmodium falciparum 3D7. Kind of data set: SYBR Green assay, Plasmodium falciparum strain 3D7. Format: cell-based. To be noted: P. falciparum strain 3D7, 96 h incubation, read-out: Pf EC50 strain 3D7.
Protocol: Assay (g): SYBR Green Assay
EC50 values for Plasmodium falciparum (Pf) NMT strain 3D7 or NF54 were measured for certain compounds of the invention using an assay utilising SYBR Green dye. The assay for NMT strain 3D7 was carried out as follows:
Synchronous Plasmodium falciparum 3D7 late stage trophozoites at 33-36 h were used. Final parasitemia and haematocrit were between 0.1-0.2% and 2% respectively. Red blood cells used for the assay were centrifuged to remove the buffy coat and washed twice in Roswell Park Memorial Institute (RPMI) Media 1640 so that no white blood cells were present. The culture medium contained RPMI 1640 with 5 g/L Albumax, 0.025 g/L gentamycin and 0.292 g/L L-glutamine.
Sterile 96 well black tissue culture plates (Costar) were used routinely for every assay. […] Chloroquine was used as a standard with ten times reduced concentrations range as above. Two sets of control were used in duplicate wells, one set with no added compound of the invention or standard (positive control) and one with uninfected red blood cells (negative control).
The plates were incubated at 37° C. for 48 h in a gas chamber flushed with 5% CO2, 5% O2 and 90% N2. After 48 h supernatants were taken out from each well and replaced with fresh drug and incubated for a further 48 h in the same manner. At the end of the 96 h incubation, 25 μL of SYBR Green I dye (SYBR Green I nucleic acid gel stain 10,000×, in DMSO from Invitrogen) in lysis buffer (1 μL dye to 1 mL lysis buffer) was added to each well and stored overnight at −20° C. The lysis buffer contained Tris (20 mM, pH 8.0), EDTA (2 mM), Saponin (0.16%) and Triton X-100 (1.6% v/v).
Plates were warmed to room temperature and fluorescence intensity was measured with a FLUOstar Omega Microplate fluorescence reader (BMG Labtech). Values were expressed in relative fluorescence units. Binding of SYBR Green is specific for parasite DNA as mature erythrocytes lack DNA and RNA. Fluorescence intensity unit was converted to percentage (%) of growth as follows:
% growth=(culture under drug)−(uninfected RBC)/(culture with no drug)−(uninfected RBC)×100
and the EC50 value was determined.
Data set [2] has as its target Plasmodium vivax (Pv) NMT (Plasmodium vivax (strain Salvador I), UniProt A5K1A2). Kind of data set: biochemical.
The next data set concerns SU-DHL-10 cells. Kind of data set: Cell cytotoxicity in SU-DHL-10 cell line (CellTiter-Glo). Format: cell-based. To be noted: Homo sapiens, SU-DHL10; CellTiter-Glo, 48 h; read-out: SU-DHL-10 EC50. As to the method: Assay (c): Cell Cytotoxicity in SU-DHL-10 Cell Line
Cell Culture: SU-DHL-10 (ATCC CRL-2963) were cultured in RPMI-media (ATCC, 30-2001).
Cultures were maintained by the addition of fresh medium and inoculum of 8.0×10^4 to 2.0×10^5 cells/mL. Subculturing was done when the cell density was between 1.0×10^6 and 2.0×10^6 cells/mL.
Cell seeding: 5000 cells/well were plated in 384-white clear bottom plates (Greiner, 781098) for the assay in 20 μl growth media.
Top dose: 1 mM stocks of each compound was prepared in 100% DMSO and thereafter diluted 333.33 fold in growth media to obtain 3 μM (0.3% DMSO) mid stock of each compound, from which 10 μl was added to assay wells (with 20 μl cells) for a final concentration of 1 μM (0.1% DMSO). For subsequent dose-response: 1 mM stock was diluted 3 fold in DMSO before subjecting to above dilution pattern to obtain final 0.1% DMSO concentration.
Treatment: Cells were incubated with the compounds for 48 h at 37° C. in presence of 5% CO2.
Assay Procedure: The assay plate and its contents were equilibrated at room temperature for approximately 30 minutes. CellTiter-Glo® Reagent was added equal to the volume (1;1) of cell culture medium present in each well. The contents were mixed for 5 minutes on an orbital shaker to induce cell lysis. The plate was allowed to incubate at room temperature for 10 minutes to stabilize luminescent signal. The luminescence was recorded with an integration time of 0.25 seconds in EnVision 2104 Multilabel Plate Reader (Perkin Elmer).
Calculation: % Cytotoxicity was calculated considering 100% cell death in wells treated with 0.1% TritonX.
In general terms: In ATP-based viability assays light output follows the ATP content of the culture.

The target of the next data set is Human NMT1 (HsNMT1) (Homo sapiens, UniProt P30419). Kind of data set: biochemical.
Chain of Human NMT1 (HsNMT1) (P30419 whole entry, looked up): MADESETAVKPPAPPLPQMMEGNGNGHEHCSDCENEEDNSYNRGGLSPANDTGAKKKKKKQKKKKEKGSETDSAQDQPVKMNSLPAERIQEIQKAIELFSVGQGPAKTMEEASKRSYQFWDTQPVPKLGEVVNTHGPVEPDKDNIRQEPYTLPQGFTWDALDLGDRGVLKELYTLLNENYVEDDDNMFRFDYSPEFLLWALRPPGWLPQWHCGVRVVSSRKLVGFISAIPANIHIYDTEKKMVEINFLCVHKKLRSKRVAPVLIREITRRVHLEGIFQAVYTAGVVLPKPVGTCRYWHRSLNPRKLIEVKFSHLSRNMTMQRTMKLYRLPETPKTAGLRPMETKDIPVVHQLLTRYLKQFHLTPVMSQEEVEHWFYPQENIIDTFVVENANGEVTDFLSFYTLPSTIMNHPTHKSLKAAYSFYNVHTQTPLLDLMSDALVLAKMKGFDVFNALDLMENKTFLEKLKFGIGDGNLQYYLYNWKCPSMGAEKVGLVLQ

Chain of Plasmodium vivax (Pv) NMT (A5K1A2 1-410): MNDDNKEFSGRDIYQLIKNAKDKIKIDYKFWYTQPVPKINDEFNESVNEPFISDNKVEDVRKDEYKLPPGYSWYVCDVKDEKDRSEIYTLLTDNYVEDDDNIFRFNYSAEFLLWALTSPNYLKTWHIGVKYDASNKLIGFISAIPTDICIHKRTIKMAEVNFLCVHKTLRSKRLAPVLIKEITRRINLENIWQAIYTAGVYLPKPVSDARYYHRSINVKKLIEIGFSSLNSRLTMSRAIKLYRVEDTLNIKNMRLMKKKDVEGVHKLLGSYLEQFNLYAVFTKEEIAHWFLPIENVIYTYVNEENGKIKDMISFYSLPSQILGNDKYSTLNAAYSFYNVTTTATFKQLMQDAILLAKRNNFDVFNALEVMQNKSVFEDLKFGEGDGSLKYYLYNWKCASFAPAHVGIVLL

On to `C[C@H]1CN(C)CCN1c1ncc(F)c(N2CC(C(=O)N(C)C(C)(C)c3cnc4ccccn34)C2)n1` [Example 108, 1-{2-[(2S)-2,4-dimethylpiperazin-1-yl]-5-fluoropyrimidin-4-yl}-N-(2-{imidazo[1,2-a]pyridin-3-yl}propan-2-yl)-N-methylazetidine-3-carboxamide], for which the half-life at 1 µM in “in vitro” came to 0.967 h. For the same compound, the negative-log EC50 (pEC50) in data set [1] was 6.70.
Turning to `C[C@@H]1CN(c2ncc(Cl)c(N3CC(C(=O)NC(C)(C)c4cnc5ccccn45)C3)n2)C[C@H](C)N1` [Example 43], in the data set “in vitro”, the half-life at 1 µM is over 3 h. Also, in data set [1], the pEC50 is 6.96.
`C[C@@H]1CN(c2ncc(Cl)c(N3CC(C(=O)NC(C)(C)c4cnc5ccccn45)C3)n2)CCN1` [Example 1, 1-{5-chloro-2-[(3R)-3-methylpiperazin-1-y]pyrimidin-4-yl}-N-(2-{imidazo[1,2-a]pyridin-3-yl}propan-2-yl)azetidine-3-carboxamide]: the pIC50 in data set [2] is 8.18; against Human NMT1 (HsNMT1), 8.52. Moreover, the results for the negative logarithm of the EC50 (pEC50) (in the data set with SU-DHL-10 cells; in data set [1]) were 6.44 and 8.20, respectively.
`CC1CN(c2ncc(Cl)c(N3CC(C(=O)NC(C)(C)c4cnc5ccccn45)C3)n2)C[C@H](C)N1` (some centres unmarked) [Example 48]: the pEC50 in the data set with SU-DHL-10 cells was 6.10; in data set [1], 7.19.
The compound `COc1cnc(N2C[C@@H](C)N(C)[C@@H](C)C2)nc1N1CC(C(=O)NC(C)(C)c2cnc3ccccn23)C1` [Example 88, N-(2-{imidazo[1,2-a]pyridin-3-yl}propan-2-yl)-1-{5-methoxy-2-[(3R,5S)-3,4,5-trimethylpiperazin-1-yl]pyrimidin-4-yl}azetidine-3-carboxamide] showed a half-life at 1 µM in the data set “in vitro” of over 3 h. In addition, the negative logarithm of the EC50 (pEC50) in data set [1] was 7.12.
In turn, `Cc1ccc2ncc(C(C)(C)NC(=O)C3CN(c4nc(N5CCN(C)CC5)ncc4Cl)C3)n2c1` [Example 67] displayed a half-life at 1 µM in the data set “in vitro” of over 3 h. For the same compound, the pIC50 in data set [2] was 8.25. Moreover, the negative-log EC50 (pEC50) in data set [1] is 6.92.
Take `CC1CNCCN1c1ncc(Cl)c(N2CC(C(=O)N(C)C(C)(C)c3cnc4ccccn34)C2)n1` (centres unmarked) [Example 50]: the pEC50 in the data set with SU-DHL-10 cells was 7.46; in data set [1], 7.59.
In “in vitro”, `CN1CCN(c2cc(N3CC(C(=O)NC(C)(C)c4cnc5ccccn45)C3)c(F)cn2)CC1` [Example 4, 1-[5-fluoro-2-(4-methylpiperazin-1-yl)pyridin-4-yl]-N-(2-{imidazo[1,2-a]pyridin-3-yl}propan-2-yl)azetidine-3-carboxamide] registered a half-life at 1 µM of over 3 h. Also, the negative-log EC50 (pEC50) in data set [1] is 7.00.
As to `CC(C)(NC(=O)C1CN(c2nc(N3CCNCC3)ncc2Cl)C1)c1cnc2ccccn12` [Example 33], the pIC50 in data set [2] is 8.18; against Human NMT1 (HsNMT1), 8.46. The negative-log EC50 (pEC50) with SU-DHL-10 cells was 6.06; in data set [1], 7.74.
As for `C[C@H]1CNCCN1c1ncc(C(F)(F)F)c(N2CC(C(=O)N(C)C(C)(C)c3cnc4ccccn34)C2)n1` [Example 135, (S)—N-(2-(imidazo[1,2-a]pyridin-3-yl)propan-2-yl)-N-methyl-1-(2-(2-methylpiperazin-1-yl)-5-(trifluoromethyl)pyrimidin-4-yl)azetidine-3-carboxamide], in the data set with SU-DHL-10 cells, the pEC50 is 6.12. On Human NMT1 (HsNMT1), the pIC50 was 7.57.
As to `CCN(C(=O)C1CN(c2nc(N3CCNC[C@@H]3C)ncc2Cl)C1)C(C)(C)c1cnc2ccccn12` [Example 145, (S)-1-(5-chloro-2-(2-methylpiperazin-1-yl)pyrimidin-4-yl)-N-ethyl-N-(2-(imidazo[1,2-a]pyridin-3-yl)propan-2-yl)azetidine-3-carboxamide], the pEC50 in the data set with SU-DHL-10 cells is 7.89. The negative-log IC50 (pIC50) against Human NMT1 (HsNMT1) was 8.52.
The like results for `Cc1cc2c(N3CC(C(=O)NC(C)(C)c4cnc5ccccn45)C3)nc(N3CCCN(C)CC3)nc2s1` [Example 117, N-(2-(imidazo[1,2-a]pyridin-3-yl)propan-2-yl)-1-(6-methyl-2-(4-methyl-1,4-diazepan-1-yl)thieno[2,3-d]pyrimidin-4-yl)azetidine-3-carboxamide] were, in that order, 7.18 and 8.22.
